# Results published in PMC10418735, “Lipophilic Studies and In Silico ADME Profiling of Biologically Active 2-Aminothiazol-4(5H)-one Derivatives” (International Journal of Molecular Sciences, 2023).
# How the values were obtained:
# [1] = Lipophilicity by RP-TLC (methanol/water, HPTLC 60RP-18 plates); type: physicochemical; settings: for −S (slope of the regression curve), RP–TLC / RM0: methanol/water, RP-TLC; for RM0: extrapolated to zero methanol concentration, 22 °C; for Φ0 (chromatographic lipophilicity parameter), RP–TLC: Φ0 = −RM0/S
# Protocol: Specifically, 10 × 10 cm plates with silica gel HPTLC 60RP-18 WF254s (Merck, Darmstadt, Niemcy) were used as the stationary phase. Methanol and water for HPLC from POCH (Gliwice, Poland) were used as solvents. Methanol concentration expressed as volume fraction v/v, varied in the range from 0.5 to 0.7 in constant steps of 0.05. Test compounds were dissolved in methanol (2 mg/mL), and then samples (0.01 mL) of each were applied to plates, which were developed in a horizontal DS chamber (Chromdes, Lublin, Poland).
# The developing distance was 8 cm. Developed plates were air-dried and observed under 254 nm ultraviolet lamp. All analyzes were performed at 22 °C. Experiments were performed in triplicate with similar results.
# For all the compounds, the relative lipophilicity RM values for five methanol–water mobile phases were calculated by the use of the following formula:(4) RM=log[1−RF/RF].
# The linear relationship between the RM values and the concentration of methanol in the mobile phase to determine the lipophilicity parameters RM0 is described by the following equation:(5) RM=RM0+SΦ, where Φ —methanol concentration in the mobile phase (volume fraction v/v), and S—the slope of the regression curve.
# The quantity Φ0 was calculated from the following equation:(6) Φ0=−RM0/S.
# [2] = Lipophilicity by RP-HPLC (methanol/water, RP-18 column); type: physicochemical; settings: for −S (slope of the regression curve), RP–HPLC / log kw: methanol/water, RP-HPLC; for log kw: extrapolated to zero methanol concentration, 25 °C; for Φ0 (chromatographic lipophilicity parameter), RP–HPLC: Φ0 = −log kw/S
# Protocol: The HPLC experiments were performed on the Shimadzu HPLC system (Kyoto, Japan) equipped with solvent delivery pump LC-20AD, UV–VIS detector model SPD-20A, degasser model DGU-20A5, a column oven model CTO-20A, and a column Superspher® 100 RP-18 (4 μm), Merck (Darmstadt, Germany). Methanol and water for HPLC from POCH (Gliwice, Poland) were used as solvents. Mobile phase methanol/water varied in the various ratios. Methanol concentration expressed as volume fraction v/v, varied in the range from 0.55 to 0.95 in constant steps of 0.05. Compounds 1–28 were dissolved in methanol (1 mg/mL). The mobile phase flow rate was 0.7 mL/min. The injection volume was 0.02 mL. All analyzes were performed at 25 °C. Experiments were performed in triplicate with similar results.
# The retention coefficient k was calculated from the following relationship:(1) k=tr/tm−1, where tr [min]—retention time, and tm [min]—time for dead volume (measured by use of uracil).
# To determine the linear relationship between the values of the log k parameter and the concentration of methanol in the mobile phase, the Soczewiński–Wachtmeister equation was used:(2) logk= log kw+SΦ, where log kw —value extrapolated to zero methanol concentration, Φ —methanol concentration in the mobile phase (volume fraction v/v), and S—the slope of the regression curve.
# The parameter Φ0 was calculated from the equation:(3) Φ0=−log kw/S.
SMILES,"−S (slope of the regression curve), RP–TLC [1]",RM0 [1],"Φ0 (chromatographic lipophilicity parameter), RP–TLC [1]","−S (slope of the regression curve), RP–HPLC [2]",log kw [2],"Φ0 (chromatographic lipophilicity parameter), RP–HPLC [2]"
"CC(C)NC1=NC(=O)C(C)S1 (centres unmarked) [Compound 1, 5-methyl-2-isopropylaminothiazol-4(5H)-one]",1.280,0.94,0.734,2.975,1.35,0.454
CCC1SC(NC(C)C)=NC1=O (centres unmarked) [Compound 2],2.075,1.39,0.668,3.254,1.86,0.571
CCCC1SC(NC(C)C)=NC1=O (centres unmarked) [Compound 3],2.422,1.63,0.673,3.494,2.28,0.652
CC(C)NC1=NC(=O)C(C(C)C)S1 (centres unmarked) [Compound 4],2.127,1.41,0.663,3.603,2.28,0.633
CC(C)NC1=NC(=O)C(C)(C)S1 [Compound 5],1.903,1.20,0.629,3.400,1.94,0.571
CC(C)NC1=NC(=O)C(c2ccccc2)S1 (centres unmarked) [Compound 6],2.049,1.58,0.771,4.3069,2.84,0.659
CC(C)NC1=NC(=O)C(c2ccc(Br)cc2)S1 (centres unmarked) [Compound 7],3.870,2.85,0.736,4.422,3.22,0.728
CC(C)NC1=NC(=O)C2(CCCCC2)S1 [Compound 8],2.877,2.04,0.709,4.170,2.97,0.712
CC(C)NC1=NC(=O)C2(CCC2)S1 [Compound 9],1.990,1.37,0.691,2.890,1.79,0.619
CC1SC(NC(C)(C)C)=NC1=O (centres unmarked) [Compound 10],2.393,1.57,0.658,3.122,1.74,0.557
CCC1SC(NC(C)(C)C)=NC1=O (centres unmarked) [Compound 11],2.478,1.59,0.643,3.073,1.88,0.612
CCCC1SC(NC(C)(C)C)=NC1=O (centres unmarked) [Compound 12],2.426,1.71,0.703,3.606,2.46,0.682
CC(C)C1SC(NC(C)(C)C)=NC1=O (centres unmarked) [Compound 13],2.095,1.46,0.699,3.585,2.39,0.667
CC(C)(C)NC1=NC(=O)C(C)(C)S1 [Compound 14],1.826,1.19,0.652,3.320,2.02,0.608
CC(C)(C)NC1=NC(=O)C(c2ccccc2)S1 (centres unmarked) [Compound 15],4.293,3.17,0.739,4.449,3.25,0.730
CC(C)(C)NC1=NC(=O)C(c2ccc(Br)cc2)S1 (centres unmarked) [Compound 16],4.131,3.20,0.774,4.537,3.38,0.745
"CC(C)(C)NC1=NC(=O)C2(CCCCC2)S1 [Compound 17, 2-(tert-butylamino)-1-thia-3-azaspiro[4.5]dec-2-en-4-one]",2.477,1.89,0.762,3.904,2.86,0.732
CC(C)(C)NC1=NC(=O)C2(CCC2)S1 [Compound 18],2.476,1.69,0.683,3.297,2.15,0.652
CC1SC(NC23CC4CC(CC(C4)C2)C3)=NC1=O (centres unmarked) [Compound 19],3.148,2.55,0.810,4.099,3.22,0.786
CCC1SC(NC23CC4CC(CC(C4)C2)C3)=NC1=O (centres unmarked) [Compound 20],2.678,2.30,0.860,4.437,3.6,0.811
CCCC1SC(NC23CC4CC(CC(C4)C2)C3)=NC1=O (centres unmarked) [Compound 21],2.564,2.33,0.909,4.859,4.08,0.840
CC(C)C1SC(NC23CC4CC(CC(C4)C2)C3)=NC1=O (centres unmarked) [Compound 22],3.175,2.67,,4.744,3.94,0.830
CC1(C)SC(NC23CC4CC(CC(C4)C2)C3)=NC1=O [Compound 23],2.446,2.11,0.863,4.392,3.54,0.806
"O=C1N=C(NC23CC4CC(CC(C4)C2)C3)SC1c1ccccc1 (centres unmarked) [Compound 24, 2-(adamantan-1-ylamino)-5-phenylthiazol-4(5H)-one]",4.203,3.31,0.787,5.024,4.13,0.822
"O=C1N=C(NC23CC4CC(CC(C4)C2)C3)SC1c1ccc(Br)cc1 (centres unmarked) [Compound 25, 2-(adamantan-1-ylamino)-5-(4-bromophenyl)thiazol-4(5H)-one]",3.277,3.56,1.086,5.578,5.63,1.009
O=C1N=C(NC23CC4CC(CC(C4)C2)C3)SC12CCCCC2 [Compound 26],3.520,3.09,0.879,5.192,4.49,0.865
